For data set [1], the system named is Rac1 protein in the urine. The data set can be described thus: Urinary Rac1 analysis in healthy human subjects following treatment with Compound 1 (Phase 1, NCT03970122). The class given is in vivo. On the procedure: The aim of this study was to measure the amount of Rac1 protein in the urine of healthy human subjects treated with Compound 1.
Healthy human subjects enrolled in a Phase 1 clinical study, “A First-In-Human, Phase 1, Placebo-Controlled Study to Evaluate the Safety, Tolerability, and Pharmacokinetics of Compound 1, a TRPC5 Channel Inhibitor, in Healthy Subjects and Subjects With Renal Impairment,” (NCT03970122) were administered a single, oral dose of either a placebo or 20 mg Compound 1 as a tablet. A urine sample was collected prior to administration of drug, and urine pools were then collected from 0-4 hours, 4-8 hours, 8-12 hours, 12-24 hours, 24-48 hours and 48-72 hours after dosing.
(§1) For Rac1 analysis, urine samples were concentrated as follows: 20 mL of urine was spun at 1500×g for 5 min to remove cell debris. Samples were concentrated using a Pierce protein concentrator with 10 kDa MWCO (Cat# 88516, Thermo Scientific, USA) and spun at 6000×g for 30 min at 4° C. using rotor JA 14.50 (Beckman Coulter, USA) in an AVANTI-JE centrifuge, (Beckman Coulter). A second centrifugation at 6000×g for 30 min at 4° C. was performed for samples that were concentrated to a volume that was >1 mL, to achieve a volume of <1 mL for all samples. The concentrated urine was collected and stored in −80° C. Next, the samples were analyzed for urinary Rac1 by ELISA (Cat# abx253084, Abbexa Ltd, UK) and urinary creatinine by ELISA (Cat# ab65340, Abcam, USA) following standard procedures according to the manufacturer's instructions. The amount of Rac1 in the urine was normalized to the amount of creatinine in the urine to control for the volume of urine produced.
Additional data was obtained from human subjects that were administered a single, oral dose of either a placebo, 5 mg of Compound 1 as a liquid suspension or 20, 40 or 80 mg of Compound 1 as tablets. A urine sample was collected prior to administration of drug, and urine pools were then collected from 0-4 hours, 4-8 hours, 8-12 hours, 12-24 hours, and for each 24 hour period from day 2 through day 7 after dosing. Each dose level comprised 2 placebo and 8 treated subjects.

Data set [2] concerns Rac1 protein in the urine. The data set can be described thus: Urinary Rac1 analysis in naive rats following treatment with Compound 1. In kind it is in vivo, Sprague Dawley rats. The settings on record: 10 mg/kg oral gavage once daily for 7 days. As for the experimental part:
The aim of this study was to measure the amount of Rac1 protein in the urine of healthy rats treated with Compound 1.
Six to seven weeks old Sprague Dawley rats were placed in metabolic cage housing for urine collection. Following two 24-hour periods of pre-dose urine collection, received one daily dose of Compound 1 administered by oral gavage at 10 mg/kg for 7 days; control animals were administered vehicle. Urine was collected for 24-hour periods beginning on the day of dosing inception and on days 3 and 6 of dosing.
as §1, with “Urine” for “For Rac1 analysis, urine”, “The amount of Rac1 in the urine was normalized to the amount of creatinine in the urine to control for the volume of urine produced.” left out

Data set [3] has as its system COL4A4 knockout mice. The data set can be described thus: Effects of Compound 1 in COL4A4 knockout mice (Alport model). In kind it is in vivo, mouse. The settings on record: 3 mg/kg or 10 mg/kg oral gavage once daily for 4 weeks, FIG. 8. An excerpt:
The aim of this study was to evaluate the effects of the TRCPS inhibitor, Compound 1, to attenuate the development and/or progression of albuminuria in […] knockout mice.
The COL4A4 knockout mouse model is a well-established model of Alport disease, characterized by increased levels of urinary protein and albumin excretion. [Korstanje et al., “A mouse Col4a4 mutation causing Alport glomerulosclerosis with abnormal collagen α3α4α5(IV) trimers,” Kidney Int. (2014) 85:1461-1468].
Four to five weeks old COL4A4 knockout mice were received one daily dose of Compound 1 administered by oral gavage at 3 mg/kg or 10 mg/kg for 4 weeks; control animals were administered vehicle. Body weight was recorded daily and urinary protein and creatinine were recorded every week, and the ratio of urine protein to creatinine (UPCR) was calculated.

Data set [4] deals with Rac1 protein in the urine. The data set can be described thus: Urinary Rac1 analysis in DOCA-salt hypertensive rats following treatment with Compound 1. The class given is in vivo, Sprague Dawley rats. An excerpt:
The aim of this study was to measure the amount of Rac1 protein in the urine of DOCA-salt hypertensive rats treated with Compound 1.
(§2) The DOCA-salt hypertensive rat model is a well-established model of mineralocorticoid hypertension with renal dysfunction leading to an FSGS phenotype, characterized by increased levels of urinary protein and albumin excretion. [Schenk et al., “The pathogenesis of DOCA-salt hypertension,” J. Pharmacol. Toxicol. Methods (May 1992) 27 (3):161-170; Gomez-Sanchez et al., “Mineralocorticoids, salt and high blood pressure,” Steroids (1996) 61:184-188.]
Six to seven weeks old Sprague Dawley rats were unilaterally nephrectomized. After one-week recovery, rats were implanted with a DOCA pellet (45 mg) and provided tap water containing 0.9% NaCl and 0.2% KCl (Day 1) for a 4 weeks treatment. […] Body weight was recorded daily throughout the study. […] Urine was collected for 24-hour periods beginning on day 17, day 20, day 24 and day 27, and urine protein and albumin were measured using standard methods.
For Rac1 analysis, urine samples were concentrated as follows: 20 mL of urine was spun at 1500×g for 5 min to remove cell debris. […] Next, the samples were analyzed for urinary Rac1 by ELISA (Cat# abx253084, Abbexa Ltd, UK) and urinary creatinine by ELISA (Cat# ab65340, Abcam, USA) following standard procedures according to the manufacturer's instructions. […]

Data set [5] relates to DOCA-salt hypertensive rats. The data set can be described thus: Effects of Compound 1 in DOCA-salt hypertensive rats (albuminuria). The class given is in vivo, Sprague Dawley rats. As to conditions: for urinary albumin excretion: week 2 to week 4, FIG. 7.
Description: The aim of this study was to evaluate the effects of the TRCPS inhibitor, Compound 1, to attenuate the development and/or progression of albuminuria in deoxycorticosterone acetate (DOCA)-salt hypertensive rats.
as §2
Six to seven weeks old Sprague Dawley rats were unilaterally nephrectomized; after one-week recovery, rats were implanted with a DOCA pellet (45 mg) and provided tap water containing 0.9% NaCl and 0.2% KCl (Day 1) for a 4 weeks treatment. On Day 1, DOCA-salt rats received one daily dose of Compound 1 administered by oral gavage at 3 mg/kg or 10 mg/kg for 4 weeks; control animals for DOCA treatment were administered vehicle. Sham animals, implanted with a silicone-water pellet, were given tap water and received oral administration of the vehicle. Body weight was recorded daily and proteinuria, albuminuria and arterial blood pressure were recorded every week.

The test system of data set [6] is ZDSD rats. The data set can be described thus: ZDSD model of diabetic nephropathy, albuminuria. In kind it is in vivo, rat. An excerpt:
The aim of this study was to evaluate the effects of the TRCPS inhibitor, Compound 1, to attenuate the development and/or progression of albuminuria in ZDSD model of diabetic nephropathy (DN).
The ZDSD model is an established model which recapitulates the major features of diabetes including impaired glucose metabolism, neuropathy, retinopathy and nephropathy [Peterson et al., “Characterization of the ZDSD Rat: A Translational Model for the Study of Metabolic Syndrome and Type 2 Diabetes,” J. Diabetes. Res. (2015), Article ID 487816, 10 pages; Peterson et aL, “The ZDSD rat: a novel model of diabetic nephropathy,” Am. J. Transl. Res. (2017) 9: 4236-4249].
Male ZDSD rats (Crown Bioscience, Indianapolis, IN., n=79) were maintained on standard rodent chow (Purina 5008) from weaning to 15 weeks of age. A diabetogenic diet (Research Diet D124668) was initiated and maintained for three weeks to synchronize development of hyperglycemia. Diabetogenic diet was replaced with Purina 5008 for remainder of the study. Animals were housed two per cage and maintained on a 12 hour light cycle (0600-1800). Room temperature was monitored daily and maintained at 70-74° F. Food and water were provided ad libitum for duration of the study. […]
Body weight was recorded weekly. Food consumption was recorded weekly during the treatment phase from week 0 through 12. […]

The subject of data set [7] is DOCA-salt hypertensive rats. The data set can be described thus: Effects of Compound 3 in DOCA-salt hypertensive rats (albuminuria), eplerenone control. The class given is in vivo, Sprague Dawley rats.
Description: The aim of this study was to evaluate the effects of the TRCPS inhibitor, Compound 3, to attenuate the development and/or progression of albuminuria in deoxycorticosterone acetate (DOCA)-salt hypertensive rats.
Six to seven weeks old Sprague Dawley rats were unilaterally nephrectomized; after one-week recovery, rats were implanted with a DOCA pellet (45 mg) and provided tap water containing 0.9% NaCl and 0.2% KCl (Day 1) for a 4 weeks treatment. On Day 1, DOCA-salt rats received one daily dose of Compound 3 administered by oral gavage at 30 mg/kg for 4 weeks; control animals for DOCA treatment were administered vehicle or the mineralocorticoid receptor antagonist (MCRA) eplerenone by twice-daily oral gavage at 50 mg/kg. Sham animals, implanted with a silicone-water pellet, were given tap water and received SC administration of the vehicle. Body weight was recorded daily and proteinuria, albuminuria and arterial blood pressure were recorded every week.
Data set [8] has as its system DOCA-salt hypertensive rats. The data set can be described thus: Effects of cyclosporine A and tacrolimus in DOCA-salt hypertensive rats (albuminuria). The class given is in vivo, Sprague Dawley rats. The arrangement: urinary albumin excretion: dose or concentration left out as unconfirmed. On the procedure: The DOCA-salt hypertensive rat model is a well-established model of mineralocorticoid hypertension with renal dysfunction leading to an FSGS phenotype, characterized by increased levels of urinary protein and albumin excretion. [Schenk et al., “The pathogenesis of DOCA-salt hypertension,” J. Pharmacol. Toxicol.
Six to seven weeks old Sprague Dawley rats were unilaterally nephrectomized; after one-week recovery, rats were implanted with a DOCA pellet (45 mg) and provided tap water containing 0.9% NaCl and 0.2% KCl (Day 1) for a 3 weeks treatment. […] Sham animals, implanted with a silicone-water pellet, were given tap water and received administration of the vehicle. Proteinuria and albuminuria were recorded every week, and body weight was recorded daily.

In the case of `O=c1[nH]ncc(N2CCc3c(ncnc3Oc3ccc(F)cc3C(F)(F)F)C2)c1Cl` [Compound 1], the “urinary Rac1 levels (Rac1 normalized to creatinine)” value is recorded as “reduced urinary Rac1 levels” in data set [1] (healthy humans, single oral 20 mg tablet, vs pre-dose, significance by 8-12 hours after dosing (p<0.05), FIG. 4); “reduced urinary Rac1 levels” in data set [2] (vs pre-dose levels, significance at day 4 (p<0.01), FIG. 2); “reduced urinary Rac1 levels” in data set [4] (10 mg/kg oral gavage once daily for 7 days from day 21, vs pre-dose levels, significance day 25 (p<0.01), FIG. 3). In addition, the “time urinary Rac1 levels remained reduced” value in data set [1] (humans, single 40 mg oral dose) is “up to 4 days”; in data set [1] (humans, single 80 mg oral dose), “at least 7 days”. The “urinary Rac1 levels” value in data set [1] (humans, single oral dose 5 mg suspension or 20, 40, 80 mg tablets, significance by 8-12 hours with 40 mg and 80 mg doses vs pre-dose (p<0.05), FIG. 4B) is given as “reduced urinary Rac1 levels”. Also, the adverse effects result is “No adverse effects were observed” in data set [2]; “No adverse effects were observed” in data set [4] (10 mg/kg oral gavage once daily for 7 days from day 21); “No adverse effects were observed” in data set [5] (DOCA-salt rats, 3 or 10 mg/kg oral gavage once daily for 4 weeks). The “urinary protein to creatinine ratio (UPCR)” value in data set [3] is listed as “no effect”. For the same molecule, the urinary albumin excretion result is reported as “attenuated urinary albumin excretion” in data set [5] (3 mg/kg oral daily, significant at week 3 vs DOCA-vehicle (p<0.05)); “attenuated urinary albumin excretion” in data set [5] (10 mg/kg oral daily, vs DOCA-vehicle, p<0.05 week 2, p<0.001 weeks 3 and 4); “attenuated urinary albumin excretion” in data set [6] (3 or 10 mg/kg/d oral gavage 12 weeks, week 6 to week 12, significance at weeks 10 to 12 vs vehicle (p<0.001), FIG. 6). Besides, the body weight result in data set [5] (DOCA vs DOCA and Compound 1, 3 or 10 mg/kg oral daily 4 weeks) was “no significant difference”; in data set [6] (3 mg/kg and 10 mg/kg oral gavage daily for 12 weeks, vs vehicle group, last two weeks of study) it was “increase in body weight”.
As to `COC(=O)[C@@H]1CC2=CC(=O)CC[C@]2(C)[C@@]23O[C@@H]2C[C@@]2(C)[C@@H](CC[C@@]24CCC(=O)O4)[C@H]13` [eplerenone], in data set [7] (DOCA vs DOCA plus Compound 3 (30 mg/kg oral daily) or eplerenone (50 mg/kg oral twice daily)), the body weight entry is “no significant difference”. The urinary albumin excretion result in data set [7] (eplerenone 50 mg/kg twice-daily oral gavage, week 4 vs DOCA-vehicle (p<0.05), FIG. 10) is recorded as “significantly attenuated urinary albumin excretion”.
Regarding `C=CC[C@@H]1/C=C(\C)C[C@H](C)C[C@H](OC)[C@H]2O[C@@](O)(C(=O)C(=O)N3CCCC[C@H]3C(=O)O[C@H](/C(C)=C/[C@@H]3CC[C@@H](O)[C@H](OC)C3)[C@H](C)[C@@H](O)CC1=O)[C@H](C)C[C@@H]2OC` [tacrolimus, Tacrolimus], the body weight result in data set [8] (DOCA and tacrolimus 0.3 mg/kg oral gavage daily, first two weeks) is “significant loss of body weight”. Moreover, the urinary albumin excretion entry in data set [8] (tacrolimus 0.3/0.1 oral daily, weeks 2 and 3 vs DOCA-vehicle (p<0.05), FIG. 12) is given as “significantly attenuated urinary albumin excretion”. Besides, the “body weight after dose adjustment” value in data set [8] (tacrolimus dose adjusted from 0.3 mg/kg down to 0.1 mg/kg after two weeks of dosing) is reported as “reversed the weight loss”.
